US8933230B2, “Phosphorus-containing group-substituted quinoline, its preparation process, medical composition containing the compounds and application” (priority 2011, dated 2015)

Columns and labels:
Assay in all cases: KinomeScan kinase panel
Format in all cases: binding
[1] = target: T1, CAMK2D (Homo sapiens, UniProt Q13557)
T1 construct: purchased DiscoveRx Corporation (KinomeScan)
Method in brief: (§1)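 Each kinase in a 442-kinase KinomeScan set is assayed with compound present at 1000 nM, and percentage-type inhibition at that level is given.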

[2] = target: T2, YANK2 (Homo sapiens, UniProt Q9NY57)
T2 construct: purchased DiscoveRx Corporation (KinomeScan service)
Method in brief: as §1

[3] = target: T3, CHEK1 (Homo sapiens, UniProt O14757)
T3 construct: purchased DiscoveRx Corporation (KinomeScan)
Method in brief: as §1

[4] = target: T4, EIF2AK1 (Homo sapiens, UniProt Q9BQI3)
T4 construct: purchased DiscoveRx Corporation (KinomeScan)
Method in brief: as §1

[5] = target: T5, AKT2 (Homo sapiens, UniProt P31751)
T5 construct: purchased DiscoveRx Corporation (KinomeScan)
Method in brief: as §1

[6] = target: T6, RPS6KA5(kin.Dom.1-N-termimal) (Homo sapiens, UniProt O75582)
T6 construct: kin.Dom.1; purchased DiscoveRx Corporation
Method in brief: as §1

[7] = target: T7, EGFR(E746-A750del) (Homo sapiens, UniProt P00533, DEL746-750)
T7 construct: purchased DiscoveRx Corporation (KinomeScan)
Method in brief: as §1

[8] = target: T8, ABL2 (Homo sapiens, UniProt P42684)
T8 construct: purchased DiscoveRx Corporation (KinomeScan)
Method in brief: as §1

[9] = target: T9, LTK (Homo sapiens, UniProt P29376)
T9 construct: purchased DiscoveRx Corporation (KinomeScan)
Method in brief: as §1

[10] = target: T10, EGFR(G719C) (Homo sapiens, UniProt P00533, G719C)
T10 construct: purchased DiscoveRx Corporation (KinomeScan)
Method in brief: as §1

[11] = target: T11, ROS1 (Homo sapiens, UniProt P08922)
T11 construct: purchased DiscoveRx Corporation
Method in brief: as §1

[12] = target: T12, MYO3B (Homo sapiens, UniProt Q8WXR4)
T12 construct: purchased DiscoveRx Corporation (KinomeScan)
Method in brief: as §1

[13] = target: T13, ROCK1 (Homo sapiens, UniProt Q13464)
T13 construct: purchased DiscoveRx Corporation
Method in brief: as §1

[14] = target: T14, RIPK2 (Homo sapiens, UniProt O43353)
T14 construct: purchased DiscoveRx Corporation
Method in brief: as §1

[15] = target: T15, MUSK (Homo sapiens, UniProt O15146)
T15 construct: purchased DiscoveRx Corporation (KinomeScan)
Method in brief: as §1

[16] = target: T16, LIMK1 (Homo sapiens, UniProt P53667)
T16 construct: purchased DiscoveRx Corporation (KinomeScan)
Method in brief: as §1

[17] = target: T17, MKNK2 (Homo sapiens, UniProt Q9HBH9)
T17 construct: purchased DiscoveRx Corporation (KinomeScan)
Method in brief: as §1

[18] = target: T18, DCAMKL1 (Homo sapiens, UniProt O15075)
T18 construct: purchased DiscoveRx Corporation (KinomeScan)
Method in brief: as §1

[19] = target: T19, YSK1 (Homo sapiens, UniProt O00506)
T19 construct: purchased DiscoveRx Corporation (KinomeScan service)
Method in brief: as §1

[20] = target: T20, MEK4 (Homo sapiens, UniProt P45985)
T20 construct: purchased DiscoveRx Corporation (KinomeScan)
Method in brief: as §1

[21] = target: T21, INSR (Homo sapiens, UniProt P06213)
T21 construct: purchased DiscoveRx Corporation (KinomeScan)
Method in brief: as §1

[22] = target: T22, PIM1 (Homo sapiens, UniProt P11309)
T22 construct: purchased DiscoveRx Corporation (KinomeScan)
Method in brief: as §1

[23] = target: T23, CDK2 (Homo sapiens, UniProt P24941)
T23 construct: purchased DiscoveRx Corporation (KinomeScan)
Method in brief: as §1

[24] = target: T24, CDC2L5 (Homo sapiens, UniProt Q14004)
T24 construct: purchased DiscoveRx Corporation (KinomeScan)
Method in brief: as §1

[25] = target: T25, ABL1(T315I)-nonphosphorylated (Homo sapiens, UniProt P00519, T315I)
T25 construct: purchased DiscoveRx Corporation (KinomeScan)
Method in brief: as §1

[26] = target: T26, HCK (Homo sapiens, UniProt P08631)
T26 construct: purchased DiscoveRx Corporation (KinomeScan)
Method in brief: as §1

[27] = target: T27, CDC2L2 (Homo sapiens, UniProt Q9UQ88)
T27 construct: purchased DiscoveRx Corporation (KinomeScan)
Method in brief: as §1

[28] = target: T28, TLK2 (Homo sapiens, UniProt Q86UE8)
T28 construct: purchased DiscoveRx Corporation (KinomeScan)
Method in brief: as §1

[29] = target: T29, KIT(D816V) (Homo sapiens, UniProt P10721, D816V)
T29 construct: purchased DiscoveRx Corporation (KinomeScan)
Method in brief: as §1

[30] = target: T30, GSK3A (Homo sapiens, UniProt P49840)
T30 construct: purchased DiscoveRx Corporation (KinomeScan)
Method in brief: as §1

[31] = target: T31, PCTK2 (Homo sapiens, UniProt Q00537)
T31 construct: purchased DiscoveRx Corporation (KinomeScan panel)
Method in brief: as §1

[32] = target: T32, SIK2 (Homo sapiens, UniProt Q9H0K1)
T32 construct: purchased DiscoveRx Corporation (KinomeScan)
Method in brief: as §1

[33] = target: T33, ULK2 (Homo sapiens, UniProt Q8IYT8)
T33 construct: purchased DiscoveRx Corporation (KinomeScan service)
Method in brief: as §1

[34] = target: T34, VRK2 (Homo sapiens, UniProt Q86Y07)
T34 construct: purchased DiscoveRx Corporation (KinomeScan service)
Method in brief: as §1

[35] = target: T35, ASK1 (Homo sapiens, UniProt Q99683)
T35 construct: purchased DiscoveRx Corporation (KinomeScan)
Method in brief: as §1

T26 sequence (P08631 whole entry): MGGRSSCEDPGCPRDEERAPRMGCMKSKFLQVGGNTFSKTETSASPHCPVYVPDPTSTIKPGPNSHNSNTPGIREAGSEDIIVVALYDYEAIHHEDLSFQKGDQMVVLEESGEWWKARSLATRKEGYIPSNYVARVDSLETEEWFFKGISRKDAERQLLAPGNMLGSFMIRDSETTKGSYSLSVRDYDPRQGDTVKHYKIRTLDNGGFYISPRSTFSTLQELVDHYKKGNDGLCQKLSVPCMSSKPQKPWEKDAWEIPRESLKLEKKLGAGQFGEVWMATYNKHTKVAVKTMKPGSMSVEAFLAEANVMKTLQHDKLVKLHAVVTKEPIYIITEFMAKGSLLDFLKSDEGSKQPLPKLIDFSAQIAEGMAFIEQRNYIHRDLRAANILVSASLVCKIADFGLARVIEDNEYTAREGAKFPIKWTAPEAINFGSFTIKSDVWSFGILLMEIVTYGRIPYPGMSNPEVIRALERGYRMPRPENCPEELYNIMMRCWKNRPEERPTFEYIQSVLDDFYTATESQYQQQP
T29 sequence (P10721 26-976 D816V): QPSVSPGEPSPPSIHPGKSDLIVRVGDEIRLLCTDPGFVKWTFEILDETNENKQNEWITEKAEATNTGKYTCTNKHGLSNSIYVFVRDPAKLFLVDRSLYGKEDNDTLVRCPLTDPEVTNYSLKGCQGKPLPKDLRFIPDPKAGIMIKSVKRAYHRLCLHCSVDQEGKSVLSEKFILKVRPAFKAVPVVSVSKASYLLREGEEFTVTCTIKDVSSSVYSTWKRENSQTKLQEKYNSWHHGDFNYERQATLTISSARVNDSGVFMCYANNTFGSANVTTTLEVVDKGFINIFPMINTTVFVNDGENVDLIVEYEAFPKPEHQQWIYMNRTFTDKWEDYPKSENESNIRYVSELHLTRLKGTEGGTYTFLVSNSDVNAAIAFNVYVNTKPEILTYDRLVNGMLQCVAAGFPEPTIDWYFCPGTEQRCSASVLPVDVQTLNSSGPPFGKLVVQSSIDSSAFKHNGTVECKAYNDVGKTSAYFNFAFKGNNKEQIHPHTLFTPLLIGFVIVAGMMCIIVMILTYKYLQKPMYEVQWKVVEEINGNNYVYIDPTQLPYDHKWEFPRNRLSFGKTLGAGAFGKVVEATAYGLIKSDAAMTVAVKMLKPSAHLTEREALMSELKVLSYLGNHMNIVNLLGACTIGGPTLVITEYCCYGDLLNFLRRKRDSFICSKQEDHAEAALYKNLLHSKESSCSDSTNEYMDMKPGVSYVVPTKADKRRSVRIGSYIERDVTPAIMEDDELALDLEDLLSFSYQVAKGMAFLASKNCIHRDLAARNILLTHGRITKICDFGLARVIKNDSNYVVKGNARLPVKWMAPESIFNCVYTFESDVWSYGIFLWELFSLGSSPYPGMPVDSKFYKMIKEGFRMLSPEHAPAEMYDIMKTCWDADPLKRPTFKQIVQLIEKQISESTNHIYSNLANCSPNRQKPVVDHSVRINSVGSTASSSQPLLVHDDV
T21 sequence (P06213 28-1382): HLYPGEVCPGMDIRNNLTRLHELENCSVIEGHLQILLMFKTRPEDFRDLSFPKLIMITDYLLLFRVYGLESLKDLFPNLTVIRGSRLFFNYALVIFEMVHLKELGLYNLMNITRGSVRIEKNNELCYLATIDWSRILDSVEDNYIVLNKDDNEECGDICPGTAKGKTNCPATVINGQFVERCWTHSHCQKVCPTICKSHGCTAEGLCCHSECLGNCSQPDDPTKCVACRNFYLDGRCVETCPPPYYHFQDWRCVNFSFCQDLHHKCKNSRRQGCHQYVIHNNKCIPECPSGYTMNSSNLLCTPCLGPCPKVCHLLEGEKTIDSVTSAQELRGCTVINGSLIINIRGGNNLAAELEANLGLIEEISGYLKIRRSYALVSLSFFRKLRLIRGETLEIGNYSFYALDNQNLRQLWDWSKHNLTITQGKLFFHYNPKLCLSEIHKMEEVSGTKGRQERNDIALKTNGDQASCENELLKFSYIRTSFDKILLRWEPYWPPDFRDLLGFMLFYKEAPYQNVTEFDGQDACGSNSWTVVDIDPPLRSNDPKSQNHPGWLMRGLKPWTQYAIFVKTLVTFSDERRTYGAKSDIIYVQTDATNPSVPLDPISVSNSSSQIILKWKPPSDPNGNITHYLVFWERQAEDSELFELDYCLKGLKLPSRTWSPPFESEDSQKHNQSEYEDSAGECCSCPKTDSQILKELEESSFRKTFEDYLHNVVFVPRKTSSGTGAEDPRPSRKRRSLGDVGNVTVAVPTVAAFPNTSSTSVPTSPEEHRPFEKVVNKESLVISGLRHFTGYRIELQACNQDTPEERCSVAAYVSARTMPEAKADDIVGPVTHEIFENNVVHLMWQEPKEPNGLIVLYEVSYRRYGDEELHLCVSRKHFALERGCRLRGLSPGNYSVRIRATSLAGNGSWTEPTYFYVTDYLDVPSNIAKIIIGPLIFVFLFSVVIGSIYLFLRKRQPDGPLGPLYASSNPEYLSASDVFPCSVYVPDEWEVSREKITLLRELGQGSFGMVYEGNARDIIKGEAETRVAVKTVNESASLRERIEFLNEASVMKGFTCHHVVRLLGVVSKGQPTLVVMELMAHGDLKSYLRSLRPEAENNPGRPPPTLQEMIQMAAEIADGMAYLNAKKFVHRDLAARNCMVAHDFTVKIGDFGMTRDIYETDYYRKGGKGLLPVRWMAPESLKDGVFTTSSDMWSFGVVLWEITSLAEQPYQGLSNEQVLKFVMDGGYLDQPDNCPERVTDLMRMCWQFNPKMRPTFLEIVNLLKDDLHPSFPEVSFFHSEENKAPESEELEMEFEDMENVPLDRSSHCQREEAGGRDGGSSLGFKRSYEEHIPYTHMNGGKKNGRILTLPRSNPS
T1 sequence (Q13557 whole entry): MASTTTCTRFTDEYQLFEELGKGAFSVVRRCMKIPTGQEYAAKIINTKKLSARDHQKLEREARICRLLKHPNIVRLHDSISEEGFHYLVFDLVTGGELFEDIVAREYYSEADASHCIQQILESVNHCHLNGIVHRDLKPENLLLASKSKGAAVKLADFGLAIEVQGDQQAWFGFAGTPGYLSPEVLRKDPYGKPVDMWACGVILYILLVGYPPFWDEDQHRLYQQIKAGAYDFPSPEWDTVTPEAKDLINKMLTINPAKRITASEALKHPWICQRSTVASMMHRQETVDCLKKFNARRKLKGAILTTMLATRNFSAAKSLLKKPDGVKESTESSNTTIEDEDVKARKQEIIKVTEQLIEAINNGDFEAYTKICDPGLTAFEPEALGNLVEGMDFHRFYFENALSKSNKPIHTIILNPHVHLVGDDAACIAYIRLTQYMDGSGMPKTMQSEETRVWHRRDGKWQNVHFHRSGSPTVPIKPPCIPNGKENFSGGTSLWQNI
T20 sequence (P45985 whole entry): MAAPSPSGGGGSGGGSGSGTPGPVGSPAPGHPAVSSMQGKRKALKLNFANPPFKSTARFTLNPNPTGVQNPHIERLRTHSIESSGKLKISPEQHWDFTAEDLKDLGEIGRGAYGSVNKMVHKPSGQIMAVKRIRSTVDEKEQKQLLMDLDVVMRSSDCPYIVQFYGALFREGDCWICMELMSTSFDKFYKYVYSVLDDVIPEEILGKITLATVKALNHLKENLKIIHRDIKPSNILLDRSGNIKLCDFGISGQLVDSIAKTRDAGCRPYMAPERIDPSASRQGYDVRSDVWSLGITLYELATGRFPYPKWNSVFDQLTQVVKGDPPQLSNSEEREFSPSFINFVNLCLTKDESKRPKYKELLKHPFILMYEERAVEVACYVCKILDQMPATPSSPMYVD
T8 sequence (P42684 whole entry): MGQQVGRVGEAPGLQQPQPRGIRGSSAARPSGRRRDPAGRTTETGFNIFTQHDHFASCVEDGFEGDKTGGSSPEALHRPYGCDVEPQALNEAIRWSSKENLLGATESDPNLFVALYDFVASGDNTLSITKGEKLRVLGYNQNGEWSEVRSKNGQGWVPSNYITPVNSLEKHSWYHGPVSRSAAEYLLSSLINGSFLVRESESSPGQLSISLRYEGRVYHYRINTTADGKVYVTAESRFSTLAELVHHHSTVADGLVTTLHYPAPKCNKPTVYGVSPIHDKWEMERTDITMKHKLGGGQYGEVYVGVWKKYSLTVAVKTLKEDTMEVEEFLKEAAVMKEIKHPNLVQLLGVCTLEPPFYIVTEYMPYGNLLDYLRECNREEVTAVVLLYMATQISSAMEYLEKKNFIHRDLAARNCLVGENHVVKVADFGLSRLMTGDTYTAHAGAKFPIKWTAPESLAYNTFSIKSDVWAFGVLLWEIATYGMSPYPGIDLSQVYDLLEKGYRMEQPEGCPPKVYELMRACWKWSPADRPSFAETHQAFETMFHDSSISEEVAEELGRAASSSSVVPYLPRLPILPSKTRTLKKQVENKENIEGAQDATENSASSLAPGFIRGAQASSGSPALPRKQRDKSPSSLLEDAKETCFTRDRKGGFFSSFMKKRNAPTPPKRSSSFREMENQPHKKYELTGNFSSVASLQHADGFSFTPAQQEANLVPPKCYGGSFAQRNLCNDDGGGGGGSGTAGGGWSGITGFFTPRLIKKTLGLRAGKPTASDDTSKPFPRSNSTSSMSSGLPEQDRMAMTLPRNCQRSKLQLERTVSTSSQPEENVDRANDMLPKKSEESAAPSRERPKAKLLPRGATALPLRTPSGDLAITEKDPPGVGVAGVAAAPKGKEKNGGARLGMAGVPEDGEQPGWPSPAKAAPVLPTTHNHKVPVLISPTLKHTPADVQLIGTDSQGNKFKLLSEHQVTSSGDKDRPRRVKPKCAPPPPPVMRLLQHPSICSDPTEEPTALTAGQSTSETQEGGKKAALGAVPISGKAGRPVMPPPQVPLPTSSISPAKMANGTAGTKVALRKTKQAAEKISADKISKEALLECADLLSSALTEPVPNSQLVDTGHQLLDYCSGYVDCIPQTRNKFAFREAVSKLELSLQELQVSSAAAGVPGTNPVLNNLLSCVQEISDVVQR

In the case of `CCOP(=O)(CN1CCC(COc2cc3nccc(Oc4ccc(NC(=O)C5(C(=O)Nc6ccc(F)cc6)CC5)cc4F)c3cc2OC)CC1)OCC` [Example 10, N1-[4-[[7-[[1-(diethoxyphosphorylmethyl)-4-piperidinyl]methoxyl]-6-methoxyl-4-quinolyl]oxyl]-3-fluorophenyl]-N1′-(4-fluorophenyl)cyclopropane-1,1-dicarboxamide], the “% Ctrl@1000 nM” value [1] is reported as 94 % Ctrl, the “% Ctrl@1000 nM” value [2] is reported as 100 % Ctrl and the “% Ctrl@1000 nM” value [3] is reported as 100 % Ctrl. The “% Ctrl@1000 nM” value [4] was 100 % Ctrl, the “% Ctrl@1000 nM” value [5] was 100 % Ctrl and the “% Ctrl@1000 nM” value [6] was 100 % Ctrl. For the same molecule, the “% Ctrl@1000 nM” value [7] was 92 % Ctrl, the “% Ctrl@1000 nM” value [8] was 28 % Ctrl and the “% Ctrl@1000 nM” value [9] was 26 % Ctrl. The “% Ctrl@1000 nM” value [10] was 75 % Ctrl, the “% Ctrl@1000 nM” value [11] was 29 % Ctrl and the “% Ctrl@1000 nM” value [12] was 100 % Ctrl. The “% Ctrl@1000 nM” value [13] was 100 % Ctrl, the “% Ctrl@1000 nM” value [14] was 30 % Ctrl and the “% Ctrl@1000 nM” value [15] was 13 % Ctrl. For the same molecule, the “% Ctrl@1000 nM” value [16] was 92 % Ctrl, the “% Ctrl@1000 nM” value [17] was 0.05 % Ctrl and the “% Ctrl@1000 nM” value [18] was 91 % Ctrl. The “% Ctrl@1000 nM” value [19] was 57 % Ctrl, the “% Ctrl@1000 nM” value [20] was 100 % Ctrl and the “% Ctrl@1000 nM” value [21] was 54 % Ctrl. The “% Ctrl@1000 nM” value [22] was 96 % Ctrl, the “% Ctrl@1000 nM” value [23] was 100 % Ctrl and the “% Ctrl@1000 nM” value [24] was 100 % Ctrl. The “% Ctrl@1000 nM” value [25] was 3.8 % Ctrl, the “% Ctrl@1000 nM” value [26] was 0.35 % Ctrl and the “% Ctrl@1000 nM” value [27] was 100 % Ctrl. The “% Ctrl@1000 nM” value [28] was 100 % Ctrl, the “% Ctrl@1000 nM” value [29] was 18 % Ctrl and the “% Ctrl@1000 nM” value [30] was 100 % Ctrl. The “% Ctrl@1000 nM” value [31] was 100 % Ctrl, the “% Ctrl@1000 nM” value [32] was 100 % Ctrl and the “% Ctrl@1000 nM” value [33] was 100 % Ctrl. For the same molecule, the “% Ctrl@1000 nM” value [34] was 100 % Ctrl and the “% Ctrl@1000 nM” value [35] was 100 % Ctrl.
